Literature values as cited in US20080031898A1, “Compositions and methods to increase the effect of a neurotoxin treatment” (priority 2004, published 2008).

Test system: BRAF(V600E) mutant xenografts
Settings: Solit et al, Nature 2006

O=C(NOC[C@H](O)CO)c1ccc(F)c(F)c1Nc1ccc(I)cc1F [PD0325901]
suppression of xenograft growth: completely suppresses the growth
